According to PubChem BioAssay AID1963443 (Molecular Pharmacology Branch, DTP, NCI, 2024):

Tested on: MDA-MB-231 complex spheroids, growth inhibition
Experiment: Anticancer human tumor MDA-MB-231 cell line growth inhibition [Asc];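 also: spheroids exposed to compounds for 7 days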
Details: for IC50: curve of first compound; for viability, T/C: stronger effect = lower value
Method in brief: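 Concentration series start at each agent's clinical Cmax, or at 10 microM when none is established, and drop in half-log steps; agents are applied alone or together to complex spheroids built with HUVEC and hMSC.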

[1] = second compound 0.03 µM, first compound 0.0316 µM
[2] = second compound 0.03 µM, first compound 0.1 µM
[3] = second compound 0.03 µM, first compound 0.316 µM
[4] = second compound 0.03 µM, first compound 1 µM
[5] = second compound 0.03 µM, first compound 3.16 µM
[6] = second compound 0.03 µM, first compound 10 µM
[7] = second compound 0.0949 µM, first compound 0.0316 µM
[8] = second compound 0.0949 µM, first compound 0.1 µM
[9] = second compound 0.0949 µM, first compound 0.316 µM
[10] = second compound 0.0949 µM, first compound 1 µM
[11] = second compound 0.0949 µM, first compound 3.16 µM
[12] = second compound 0.0949 µM, first compound 10 µM
[13] = second compound 0.3 µM, first compound 0.0316 µM
[14] = second compound 0.3 µM, first compound 0.1 µM
[15] = second compound 0.3 µM, first compound 0.316 µM
[16] = second compound 0.3 µM, first compound 1 µM
[17] = second compound 0.3 µM, first compound 3.16 µM
[18] = second compound 0.3 µM, first compound 10 µM
[19] = second compound 0.949 µM, first compound 0.0316 µM
[20] = second compound 0.949 µM, first compound 0.1 µM
[21] = second compound 0.949 µM, first compound 0.316 µM
[22] = second compound 0.949 µM, first compound 1 µM
[23] = second compound 0.949 µM, first compound 3.16 µM
[24] = second compound 0.949 µM, first compound 10 µM
[25] = second compound 3 µM, first compound 0.0316 µM
[26] = second compound 3 µM, first compound 0.1 µM
[27] = second compound 3 µM, first compound 0.316 µM
[28] = second compound 3 µM, first compound 1 µM
[29] = second compound 3 µM, first compound 3.16 µM
[30] = second compound 3 µM, first compound 10 µM

SMILES: C=CC(=O)N1CCN(c2nc(=O)n(-c3c(C)ccnc3C(C)C)c3nc(-c4c(O)cccc4F)c(F)cc23)C(C)C1 (stereo not given) + CCN1C(C(=O)NC23CCC(C(=O)O)(CC2)CC3)C(c2cccc(Cl)c2F)C2(C(=O)Nc3cc(Cl)ccc32)C12CCCCC2
- IC50 (second compound 0.03 µM): > 10 µM
- IC50 (second compound 0.0949 µM): > 10 µM
- IC50 (second compound 0.3 µM): > 10 µM
- IC50 (second compound 0.949 µM): > 10 µM
- IC50 (second compound 3 µM): > 10 µM
- viability, T/C [1]: 97.4%
- viability, T/C [2]: 97.9%
- viability, T/C [3]: 103%
- viability, T/C [4]: 104%
- viability, T/C [5]: 102%
- viability, T/C [6]: 106%
- viability, T/C [7]: 108%
- viability, T/C [8]: 107%
- viability, T/C [9]: 112%
- viability, T/C [10]: 109%
- viability, T/C [11]: 116%
- viability, T/C [12]: 120%
- viability, T/C [13]: 101%
- viability, T/C [14]: 103%
- viability, T/C [15]: 110%
- viability, T/C [16]: 118%
- viability, T/C [17]: 121%
- viability, T/C [18]: 108%
- viability, T/C [19]: 113%
- viability, T/C [20]: 113%
- viability, T/C [21]: 120%
- viability, T/C [22]: 118%
- viability, T/C [23]: 129%
- viability, T/C [24]: 121%
- viability, T/C [25]: 96%
- viability, T/C [26]: 107%
- viability, T/C [27]: 109%
- viability, T/C [28]: 114%
- viability, T/C [29]: 115%
- viability, T/C [30]: 112%

SMILES: COc1c(OCCCN2CCOCC2)ccc2c3n(c(=NC(=O)c4cnc(N)nc4)nc12)CCN3 + CNC(C)C(=O)NC1CN(S(=O)(=O)c2cccc(S(=O)(=O)N3CCC4CCC(C(=O)NC(c5ccccc5)c5ccccc5)N4C(=O)C(NC(=O)C(C)NC)C3)c2)CCC2CCC(C(=O)NC(c3ccccc3)c3ccccc3)N2C1=O
- IC50 (second compound 0.01 µM): < 0.00316 µM
- IC50 (second compound 0.0316 µM): < 0.00316 µM
- IC50 (second compound 0.1 µM): < 0.00316 µM
- IC50 (second compound 0.316 µM): < 0.00316 µM
- IC50 (second compound 1 µM): < 0.00316 µM
- viability, T/C (second compound 0.01 µM, first compound 0.00316 µM): 3.3%
- viability, T/C (second compound 0.01 µM, first compound 0.01 µM): 4.73%
- viability, T/C (second compound 0.01 µM, first compound 0.0316 µM): 3.39%
- viability, T/C (second compound 0.01 µM, first compound 0.1 µM): 3.64%
- viability, T/C (second compound 0.01 µM, first compound 0.316 µM): 2.42%
- viability, T/C (second compound 0.01 µM, first compound 1 µM): 3.12%
- viability, T/C (second compound 0.0316 µM, first compound 0.00316 µM): 2.47%
- viability, T/C (second compound 0.0316 µM, first compound 0.01 µM): 3.12%
- viability, T/C (second compound 0.0316 µM, first compound 0.0316 µM): 1.48%
- viability, T/C (second compound 0.0316 µM, first compound 0.1 µM): 1.69%
- viability, T/C (second compound 0.0316 µM, first compound 0.316 µM): 1.21%
- viability, T/C (second compound 0.0316 µM, first compound 1 µM): 1.12%
- viability, T/C (second compound 0.1 µM, first compound 0.00316 µM): 2.16%
- viability, T/C (second compound 0.1 µM, first compound 0.01 µM): 2.68%
- viability, T/C (second compound 0.1 µM, first compound 0.0316 µM): 2.19%
- viability, T/C (second compound 0.1 µM, first compound 0.1 µM): 1.47%
- viability, T/C (second compound 0.1 µM, first compound 0.316 µM): 1.18%
- viability, T/C (second compound 0.1 µM, first compound 1 µM): 0.78%
- viability, T/C (second compound 0.316 µM, first compound 0.00316 µM): 1.32%
- viability, T/C (second compound 0.316 µM, first compound 0.01 µM): 1.65%
- viability, T/C (second compound 0.316 µM, first compound 0.0316 µM): 1.85%
- viability, T/C (second compound 0.316 µM, first compound 0.1 µM): 1.41%
- viability, T/C (second compound 0.316 µM, first compound 0.316 µM): 0.21%
- viability, T/C (second compound 0.316 µM, first compound 1 µM): 0.62%
- viability, T/C (second compound 1 µM, first compound 0.00316 µM): 1.05%
- viability, T/C (second compound 1 µM, first compound 0.01 µM): 1.1%
- viability, T/C (second compound 1 µM, first compound 0.0316 µM): 0.84%
- viability, T/C (second compound 1 µM, first compound 0.1 µM): 0.98%
- viability, T/C (second compound 1 µM, first compound 0.316 µM): 0.77%
- viability, T/C (second compound 1 µM, first compound 1 µM): 0.29%

SMILES: C=C(F)C(=O)N1CCN(c2nc(OCC3CCCN3C)nc3c2CCN(c2cccc4cccc(Cl)c24)C3)CC1CC#N (stereo not given) + CCN1C(C(=O)NC23CCC(C(=O)O)(CC2)CC3)C(c2cccc(Cl)c2F)C2(C(=O)Nc3cc(Cl)ccc32)C12CCCCC2
- IC50 (second compound 0.03 µM): 3.31 µM
- IC50 (second compound 0.0949 µM): 3.22 µM
- IC50 (second compound 0.3 µM): 3.09 µM
- IC50 (second compound 0.949 µM): 3.67 µM
- IC50 (second compound 3 µM): 2.37 µM
- viability, T/C [1]: 102%
- viability, T/C [2]: 101%
- viability, T/C [3]: 88.1%
- viability, T/C [4]: 90.2%
- viability, T/C [5]: 51.2%
- viability, T/C [6]: 0.47%
- viability, T/C [7]: 100%
- viability, T/C [8]: 108%
- viability, T/C [9]: 97.9%
- viability, T/C [10]: 97.1%
- viability, T/C [11]: 50.7%
- viability, T/C [12]: 0.33%
- viability, T/C [13]: 112%
- viability, T/C [14]: 107%
- viability, T/C [15]: 110%
- viability, T/C [16]: 105%
- viability, T/C [17]: 48.9%
- viability, T/C [18]: 0.55%
- viability, T/C [19]: 112%
- viability, T/C [20]: 116%
- viability, T/C [21]: 114%
- viability, T/C [22]: 107%
- viability, T/C [23]: 57.3%
- viability, T/C [24]: 1.4%
- viability, T/C [25]: 94.3%
- viability, T/C [26]: 99.5%
- viability, T/C [27]: 97.6%
- viability, T/C [28]: 86.9%
- viability, T/C [29]: 37.7%
- viability, T/C [30]: 0.24%
